target: T1, human glucocorticoid receptor (GR) complex (Homo sapiens, UniProt P04150); assay: Glucocorticoid receptor competitive binding assay (fluorescence polarization); conditions: competition with TAMRA-labeled dexamethasone, read-out: potent activity (IC50) in the GR binding assay
T1 construct: made in house; host or cells: insect expression system (baculovirus lysate)
T1 sequence (P04150 1-777): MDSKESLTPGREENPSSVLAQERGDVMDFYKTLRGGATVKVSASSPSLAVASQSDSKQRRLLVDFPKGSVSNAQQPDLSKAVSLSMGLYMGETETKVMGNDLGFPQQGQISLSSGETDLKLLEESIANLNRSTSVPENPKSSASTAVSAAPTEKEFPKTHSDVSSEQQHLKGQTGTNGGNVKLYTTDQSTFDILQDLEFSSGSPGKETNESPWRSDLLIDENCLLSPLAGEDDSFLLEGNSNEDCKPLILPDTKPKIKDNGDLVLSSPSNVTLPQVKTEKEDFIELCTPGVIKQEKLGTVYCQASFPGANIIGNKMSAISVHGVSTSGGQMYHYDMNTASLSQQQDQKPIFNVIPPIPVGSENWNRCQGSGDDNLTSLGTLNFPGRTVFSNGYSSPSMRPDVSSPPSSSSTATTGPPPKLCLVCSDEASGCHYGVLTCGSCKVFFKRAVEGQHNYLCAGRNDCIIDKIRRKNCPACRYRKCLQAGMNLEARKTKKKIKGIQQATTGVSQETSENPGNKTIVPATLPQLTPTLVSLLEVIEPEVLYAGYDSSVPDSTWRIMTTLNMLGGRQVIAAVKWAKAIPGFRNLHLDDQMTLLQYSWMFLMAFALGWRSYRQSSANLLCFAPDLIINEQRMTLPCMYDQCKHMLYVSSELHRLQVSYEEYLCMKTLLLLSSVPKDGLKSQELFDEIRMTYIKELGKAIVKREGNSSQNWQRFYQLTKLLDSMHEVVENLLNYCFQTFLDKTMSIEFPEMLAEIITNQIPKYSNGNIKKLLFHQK
Method: Compounds of the invention were evaluated for binding to the steroid receptor by a fluorescence polarization competitive binding assay. Detailed descriptions for preparation of recombinant glucocorticoid receptor (GR) complex used in the assay is described in U.S. Patent Application Publication No. US 2003/0017503, filed May 20, 2002, and incorporated herein by reference in its entirety. Preparation of the tetramethylrhodamine (TAMRA)-labeled dexamethasone probe was accomplished using a standard literature procedure (M. Pons et al., J. Steroid Biochem., 1985, 22, pp. 267-273).
The affinity of the probe for the steroid receptor was then determined in a titration experiment. The fluorescence polarization value of the probe in assay buffer was measured on an SLM-8100 fluorometer using the excitation and emission maximum values described above. Aliquots of expression vector lysate were added and fluorescence polarization was measured after each addition until no further change in polarization value was observed. Non-linear least squares regression analysis was used to calculate the dissociation constant of the probe from the polarization values obtained for lysate binding to the probe.
This assay uses fluorescence polarization (FP) to quantitate the ability of test compounds to compete with tetramethylrhodamine (TAMRA)-labeled dexamethasone for binding to a human glucocorticoid receptor (GR) complex prepared from an insect expression system. The assay buffer was: 10 mM TES, 50 mM KCl, 20 mM Na2MoO4.2H2O, 1.5 mM EDTA, 0.04% w/v CHAPS, 10% v/v glycerol, 1 mM dithiothreitol, pH 7.4. Test compounds were dissolved to 1 mM in neat DMSO and then further diluted to 10× assay concentration in assay buffer supplemented with 10% v/v DMSO. Test compounds were serially diluted at 10× assay concentrations in 10% DMSO-containing buffer in 96-well polypropylene plates. Binding reaction mixtures were prepared in 96-well black Dynex microtiter plates by sequential addition of the following assay components to each well: 15 μL of 10× test compound solution, 85 μL of GR-containing baculovirus lysate diluted 1:170 in assay buffer, and 50 μL of 15 nM TAMRA-labeled dexamethasone. Positive controls were reaction mixtures containing no test compound; negative controls (blanks) were reaction mixtures containing 0.7 μM to 2 μM dexamethasone. The binding reactions were incubated for 1 hour at room temperature and then read for fluorescence polarization in the LJL Analyst set to 550 nm excitation and 580 nm emission, with the Rhodamine 561 dichroic mirror installed. IC50 values were determined by iterative non-linear curve fitting of the FP signal data to a 4-parameter logistic equation.

IC50 [nM]	SMILES
≤ 100	Cc1cc(C)c(S(=O)(=O)NC(CSc2c(Cl)cccc2Cl)C(F)(F)F)c(C)c1 (stereo not drawn) [N-[1-(2,6-Dichlorophenylsulfanylmethyl)-2,2,2-trifluoroethyl]-2,4,6-trimethylbenzenesulfonamide]
≤ 100	Cc1cc(C)c(S(=O)(=O)NC(CSc2ccc(C(C)C)cc2)C(F)(F)F)c(C)c1 (stereo not drawn) [2,4,6-Trimethyl-N-[2,2,2-trifluoro-1-(4-isopropylphenylsulfanylmethyl)ethyl]benzenesulfonamide]
≤ 100	Cc1cc(C)c(S(=O)(=O)NC(CSc2ccccc2Cl)C(F)(F)F)c(C)c1 (stereo not drawn) [N-[1-(2-Chlorophenylsulfanylmethyl)-2,2,2-trifluoroethyl]-2,4,6-trimethylbenzenesulfonamide]
≤ 100	Cc1cc(C)c(S(=O)(=O)NC(CSc2ccccc2OC(F)(F)F)C(F)(F)F)c(C)c1 (stereo not drawn)
≤ 100	CCc1ccccc1SCC(NS(=O)(=O)c1c(C)cc(C)cc1C)C(F)(F)F (stereo not drawn) [N-[1-(2-Ethylphenylsulfanylmethyl)-2,2,2-trifluoroethyl]-2,4,6-trimethylbenzenesulfonamide]
≤ 100	Cc1cc(C)c(S(=O)(=O)NC(CNc2ccccc2Cl)C(F)(F)F)c(C)c1 (stereo not drawn) [N-{1-[(2-Chlorophenylamino)methyl]-2,2,2-trifluoroethyl}-2,4,6-trimethylbenzenesulfonamide]
≤ 100	Cc1cc(C)c(S(=O)(=O)NC(CSc2ccc(Cl)cc2)C(F)(F)F)c(C)c1 (stereo not drawn) [N-[1-(4-Chlorophenylsulfanylmethyl)-2,2,2-trifluoroethyl]-2,4,6-trimethylbenzenesulfonamide]
≤ 100	Cc1cc(C)c(S(=O)(=O)NC(CSc2ccccc2Br)C(F)(F)F)c(C)c1 (stereo not drawn) [N-[1-(2-Bromophenylsulfanylmethyl)-2,2,2-trifluoroethyl]-2,4,6-trimethylbenzenesulfonamide]
≤ 100	COc1cccc(SCC(NS(=O)(=O)c2c(C)cc(C)cc2C)C(F)(F)F)c1 (stereo not drawn) [2,4,6-Trimethyl-N-[2,2,2-trifluoro-1-(3-methoxyphenylsulfanylmethyl)ethyl]benzenesulfonamide]
≤ 100	Cc1cc(C)c(S(=O)(=O)NC(CSc2cc(Cl)ccc2Cl)C(F)(F)F)c(C)c1 (stereo not drawn) [N-[1-(2,5-Dichlorophenylsulfanylmethyl)-2,2,2-trifluoroethyl]-2,4,6-trimethylbenzenesulfonamide]

The remaining lines, values behind:

SMILES	IC50 [nM]
CC[C@@H](CNc1ccc(C)cc1C)NS(=O)(=O)c1c(C)cc(C)cc1C [N-{(S)-1-[(2,4-Dimethylphenylamino)methyl]propyl}-2,4,6-trimethylbenzenesulfonamide]	≤ 100
Cc1cc(C)c(S(=O)(=O)NC(CN(CCC#N)c2ccccc2)C(F)(F)F)c(C)c1 (stereo not drawn) [N-(1-{[(2-Cyanoethyl)phenylamino]methyl}-2,2,2-trifluoroethyl)-2,4,6-trimethylbenzenesulfonamide]	≤ 100
CCOc1cccc(SCC(NS(=O)(=O)c2c(C)cc(C)cc2C)C(F)(F)F)c1 (stereo not drawn) [N-[1-(3-Ethoxyphenylsulfanylmethyl)-2,2,2-trifluoroethyl]-2,4,6-trimethylbenzenesulfonamide]	≤ 100
Cc1cc(C)c(S(=O)(=O)NC(COc2cccc3c2CCCC3=O)C(F)(F)F)c(C)c1 (stereo not drawn) [2,4,6-Trimethyl-N-[2,2,2-trifluoro-1-(5-oxo-5,6,7,8-tetrahydronaphthalen-1-yloxymethyl)ethyl]benzenesulfonamide]	≤ 100
Cc1cc(C)c(S(=O)(=O)NC(COc2cccc3c2CCC3=O)C(F)(F)F)c(C)c1 (stereo not drawn) [2,4,6-Trimethyl-N-[2,2,2-trifluoro-1-(1-oxoindan-4-yloxymethyl)ethyl]benzenesulfonamide]	≤ 100
Cc1ccc(OCC(NS(=O)(=O)c2c(C)cc(C)cc2C)C(F)(F)F)cc1 (stereo not drawn) [2,4,6-Trimethyl-N-(2,2,2-trifluoro-1-p-tolyloxymethylethyl)benzenesulfonamide]	≤ 100
Cc1cc(C)c(S(=O)(=O)NC(CNc2c(Cl)cccc2Cl)C(F)(F)F)c(C)c1 (stereo not drawn) [N-{1-[(2,6-Dichlorophenylamino)methyl]-2,2,2-trifluoroethyl}-2,4,6-trimethylbenzenesulfonamide]	≤ 100
COc1ccc(NCC(NS(=O)(=O)c2c(C)cc(C)cc2C)C(F)(F)F)c(C)c1 (stereo not drawn) [2,4,6-Trimethyl-N-{2,2,2-trifluoro-1-[(4-methoxy-2-methylphenylamino)methyl]ethyl}benzenesulfonamide]	≤ 100
Cc1cc(C)c(S(=O)(=O)NC(CNc2c(F)cc(F)cc2F)C(F)(F)F)c(C)c1 (stereo not drawn) [2,4,6-Trimethyl-N-{2,2,2-trifluoro-1-[(2,4,6-trifluorophenylamino)methyl]ethyl}benzenesulfonamide]	≤ 100
COC(=O)c1ccccc1N(C)CC(NS(=O)(=O)c1c(C)cc(C)cc1C)C(F)(F)F (stereo not drawn) [2-{Methyl-[3,3,3-trifluoro-2-(2,4,6-trimethylbenzenesulfonylamino)propyl]amino}benzoic acid methyl ester]	≤ 100
Cc1cccc(OCC(NS(=O)(=O)c2c(C)cc(C)cc2C)C(F)(F)F)c1 (stereo not drawn) [2,4,6-Trimethyl-N-(2,2,2-trifluoro-1-m-tolyloxymethylethyl)benzenesulfonamide]	≤ 100
Cc1cc(C)c(S(=O)(=O)NC(CNc2ccccc2)C(F)(F)F)c(C)c1 (stereo not drawn) [2,4,6-Trimethyl-N-(2,2,2-trifluoro-1-phenylaminomethylethyl)benzenesulfonamide]	≤ 100
CSc1cccc(NCC(NS(=O)(=O)c2c(C)cc(C)cc2C)C(F)(F)F)c1 (stereo not drawn) [2,4,6-Trimethyl-N-{2,2,2-trifluoro-1-[(3-methylsulfanylphenylamino)methyl]ethyl}benzenesulfonamide]	≤ 100
Cc1cc(C)c(S(=O)(=O)NC(CNc2cccc(Br)c2)C(F)(F)F)c(C)c1 (stereo not drawn) [N-{1-[(3-Bromophenylamino)methyl]-2,2,2-trifluoroethyl}-2,4,6-trimethylbenzenesulfonamide]	≤ 100
Cc1cc(C)c(S(=O)(=O)NC(CNc2ccc(Cl)cc2)C(F)(F)F)c(C)c1 (stereo not drawn)	≤ 100
Cc1cc(C)c(S(=O)(=O)NC(CSc2ccc(Cl)c(Cl)c2)C(F)(F)F)c(C)c1 (stereo not drawn) [N-[1-(3,4-Dichlorophenylsulfanylmethyl)-2,2,2-trifluoroethyl]-2,4,6-trimethylbenzenesulfonamide]	≤ 100
Cc1cc(C)c(S(=O)(=O)NC(CNc2ccc(C#N)cc2Cl)C(F)(F)F)c(C)c1 (stereo not drawn) [N-{1-[(2-Chloro-4-cyanophenylamino)methyl]-2,2,2-trifluoroethyl}-2,4,6-trimethylbenzenesulfonamide]	≤ 100
Cc1cc(C)c(S(=O)(=O)NC(COc2cc(C)ccc2Cl)C(F)(F)F)c(C)c1 (stereo not drawn) [N-[1-(2-Chloro-5-methylphenoxymethyl)-2,2,2-trifluoroethyl]-2,4,6-trimethylbenzenesulfonamide]	≤ 100
Cc1cc(C)c(S(=O)(=O)NC(COc2cc(Cl)ccc2C)C(F)(F)F)c(C)c1 (stereo not drawn) [N-[1-(5-Chloro-2-methylphenoxymethyl)-2,2,2-trifluoroethyl]-2,4,6-trimethylbenzenesulfonamide]	≤ 100
Cc1cc(C)c(S(=O)(=O)NC(COc2cccc(OC(F)(F)F)c2)C(F)(F)F)c(C)c1 (stereo not drawn) [2,4,6-Trimethyl-N-[2,2,2-trifluoro-1-(3-trifluoromethoxyphenoxymethyl)ethyl]benzenesulfonamide]	≤ 100

Reference: patent US20100048950A1 (BOEHRINGER INGELHEIM INTERNATIONAL GMBH, priority 2007, published 2010)
